According to patent US7868139B2, “Compositions and methods for the identification and treatment of immune-mediated inflammatory diseases” (UAB Research Foundation, priority 2006, dated 2011):
Entries after “also recorded” stand apart in the source; their conditions may differ. Peptide text beside a SMILES is read from it. * marks the point of attachment. Cbz = O=C(OCc1ccccc1)*; OtBu = CC(C)(C)O*

B1: ovalbumin (protein, UniProt P01012 2-386, looked up)
Ovalbumin: GSIGAASMEFCFDVFKELKVHHANENIFYCPIAIMSALAMVYLGAKDSTRTQINKVVRFDKLPGFGDSIEAQCGTSVNVHSSLRDILNQITKPNDVYSFSLASRLYAEERYPILPEYLQCVKELYRGGLEPINFQTAADQARELINSWVESQTNGIIRNVLQPSSVDSQTAMVLVNAIVFKGLWEKAFKDEDTQAMPFRVTEQESKPVQMMYQIGLFRVASMASEKMKILELPFASGTMSMLVLLPDEVSGLEQLESIINFEKLTEWTSSNVMEERKIKVYLPRMKMEEKYNLTSVLMAMGITDVFSSSANLSGISSAESLKISQAVHAAHAEINEAGREVVGSAEAGVDAASVSEEFRADHPFLFCIKHIATNAVLFFGRCVSP
notes: internal positive control antigen; exogenous foreign neoantigen

Tests used:
[1] = system: NF-κB p65; assay: Measurement of nuclear NF-κB p65 in BMDC; format: cell-based, mouse; settings: 1 μg/ml LPS plus 1 μM PSI for 60 min, compared to control
Procedure: Measurement of nuclear NF-κB—BMDC were treated with media alone, 1 μg/ml LPS, or LPS plus 1 μM PSI for 60 min. The nuclear extracts were made by using TransFactor Extraction Kit (Clontech Laboratories, Inc., Palo Alto, Calif.) based on the protocol recommended by the manufacturer. NF-κB p65 was measured by using Mercury TransFactor Kits (Clontech Labs, Inc., Palo Alto, Calif.) according to manufacturer's protocol.

[2] = system: DO11.10.RAG2−/− CD4^+ T cells; assay: T cell proliferation assay with PSI-pretreated, OVA peptide-pulsed BMDC; format: cell-based, mouse; settings: BMDC pretreated with 1 μM PSI 4 hrs, then OVA peptide 20 hrs; p<0.005
Procedure: Generation of PSI-APC Treg cells—BMDC generated from BALB/c mice were treated with 1 μM PSI dissolved in DMSO for 4 hrs and then 5 μg/ml OVA peptide for additional 20 hrs at 1×10^6/ml. After washing twice, the pretreated BMDC were added at 1×10^5/ml into cultures of 1×10^6 freshly isolated CD4^+ T cells from DO11.10.RAG2^−/− mice. Seven days later, the CD4^+ T cells were re-isolated with CD4-magnet beads (Pharmingen, San Diego, Calif.) and used to test for regulatory activity (PSI-APC Treg). Freshly isolated CD4^+ T cells from DO11.10.RAG2^−/− mice were also cultured with 5 μg/ml OVA peptide-pulsed BMDC as control, and used as memory T cells (Them).
After 4 d of incubation, 0.5 μCi of ^3H-thymidine was added to each culture for the last 18 hr of the incubation period. The cells were harvested on glass fiber filters on a PHD cell harvested (Cambridge Technology, Watertown, Mass.) and proliferation was assessed as the amount of incorporation of ^3H-thymidine into cell DNA, as measured by beta scintillation counting of the harvested samples. Data are expressed as CPM±SD.

[3] = system: DO11.10 CD4^+ T cells; assay: T cell cytokine assays (ELISA of culture supernatants); format: cell-based, mouse; settings: PSI-pretreated, OVA peptide-pulsed BMDC
Procedure: […] The culture supernatants (SN) were collected at different times and pooled together for assay. SN collected after 24 hr of culture were used for IL-2 assay and SN collected at 72 h of culture were used for IL-10, IL-4, and IFNγ assays. The cytokine content in SN was determined by ELISA as previously described by Cong et al. (Cong et al., CD4+ T cells reactive to enteric bacterial antigens in spontaneously colitic C3H/HeJBir mice: increased T helper cell type 1 response and ability to transfer disease. Journal of Experimental Medicine 187:855 (1998).

[4] = system: BMDC; assay: Maturation of LPS-stimulated BMDC (costimulatory molecules, cytokines); format: cell-based, mouse; settings: PSI-pulsed BMDC stimulated with LPS
[5] = system: mice; settings: mouse, in vivo
[6] = system: Splenic CD4^+ T cells; assay: Antigen-specific proliferation of splenic CD4+ T cells (3H-thymidine); format: cell-based, mouse

Molecule	NF-κB p65 in nuclear extracts [1]	naïve CD4+ T cell proliferation to OVA peptide-pulsed BMDC [2]	T cell IL-4 production [3]	reduction of T cell IFNα production [3] [%]	reduction of T cell IL-2 production [3] [%]	reduction of T cell IL-10 production [3] [%]	IL-10 production by BMDC [4]	IL-12p70 cytokine production [4]	expression of costimulatory molecules CD40, CD86 and MHC class II [4]	intestinal IgA response to OVA [5]	serum IgG response to OVA [5]	median stimulation index ([6]; post immunization (day 35), 50 μg/ml antigen)	T cell proliferative response, stimulation index (SI) ([6]; unimmunized mice)
CC[C@H](C)[C@H](NC(=O)OCc1ccccc1)C(=O)N[C@@H](CCC(=O)OC(C)(C)C)C(=O)N[C@@H](C)C(=O)N[C@H](C=O)CC(C)C [PSI, benzyloxycarbonyl-isoleucyl-glutamyl(O-tert-butyl)-alanyl-leucinal] (Cbz-IE(OtBu)AL-aldehyde)	inhibited BMDC NF-κβ activation; also recorded: reduced levels of NF-κB p65	inhibited T cell proliferation and cytokine production; also recorded: greatly decreased	no IL-4 production	81	89	79	not affected	did not upregulate	did not upregulate				
cholera toxin [CT]										strong intestinal IgA response	strong serum IgG response to OVA		
B1										virtually no intestinal IgA to OVA	no serum IgG response to OVA	17.1	< 3
